What follows are compounds tested against KRas G12C (Homo sapiens, UniProt P01116, G12C) (assay: Cellular inhibition of KRas G12C measured by Phospho-ERK in NCI-H358 cells). Conditions: pERK(Thr202/Tyr204) normalized with GAPDH, NCI-H358 cells, 3 hours; read-out: IC50.
Format: cell-based
How it was run: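 Following 8-12 h attachment, NCI-H358 cells got serially diluted compound (0.5% DMSO) for 3 hours. Cells were then fixed, permeabilized with cold methanol, and stained for pERK(Thr202/Tyr204) and GAPDH. Ratios were converted to percent of DMSO control, with IC50 obtained by four-parameter regression.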

Sequence of KRas G12C (P01116 1-188 isoform P01116-2 G12C): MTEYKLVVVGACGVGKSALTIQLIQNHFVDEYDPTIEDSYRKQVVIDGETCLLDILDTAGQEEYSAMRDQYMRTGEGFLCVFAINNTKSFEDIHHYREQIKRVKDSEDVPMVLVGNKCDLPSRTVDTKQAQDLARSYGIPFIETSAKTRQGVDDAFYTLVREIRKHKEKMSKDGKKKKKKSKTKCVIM

| SMILES | IC50 |
| --- | --- |
| C=CC(=O)N1CCN(c2nc(NC3CCN(C4CC4)CC3)nc3c2CCN(c2cc(O)cc4ccccc24)C3)CC1 [Example 204, 1-(4-(2-((1-cyclopropylpiperidin-4-yl)amino)-7-(3-hydroxynaphthalen-1-yl)-5,6,7,8-tetrahydropyrido[3,4-d]pyrimidin-4-yl)piperazin-1-yl)prop-2-en-1-one] | > 1000 nM |
| C=CC(=O)N1CCN(c2nc(OCCCN3CCOCC3)nc3c2CCN(c2c(C)ccc4[nH]ccc24)C3)CC1 [Example 209, 1-(4-(7-(5-methyl-1H-indol-4-yl)-2-(3-morpholinopropoxy)-5,6,7,8-tetrahydropyrido[3,4-d]pyrimidin-4-yl)piperazin-1-yl)prop-2-en-1-one] | > 1000 nM |
| C=CC(=O)N1CCN(c2nc(OCCCN3CCOCC3)nc3c2CCN(c2cc(O)cc(C)c2C)C3)CC1 [Example 213, 1-(4-(7-(5-hydroxy-2,3-dimethylphenyl)-2-(3-morpholinopropoxy)-5,6,7,8-tetrahydropyrido[3,4-d]pyrimidin-4-yl)piperazin-1-yl)prop-2-en-1-one] | > 1000 nM |
| C=CC(=O)N1CCN(c2nc(OCCCN3CCOCC3)nc3c2CCN(c2cc(O)ccc2SC(F)(F)F)C3)CC1 [Example 214, 1-(4-(7-(5-hydroxy-2-((trifluoromethyl)thio)phenyl)-2-(3-morpholinopropoxy)-5,6,7,8-tetrahydropyrido[3,4-d]pyrimidin-4-yl)piperazin-1-yl)prop-2-en-1-one] | > 1000 nM |
| C=CC(=O)N1CCN(c2nc(OC(CO)CN3CCOCC3)nc3c2CCN(c2cc(O)cc4ccccc24)C3)CC1 (stereo not shown) [Example 217, 1-(4-(2-((1-hydroxy-3-morpholinopropan-2-yl)oxy)-7-(3-hydroxynaphthalen-1-yl)-5,6,7,8-tetrahydropyrido[3,4-d]pyrimidin-4-yl)piperazin-1-yl)prop-2-en-1-one] | > 1000 nM |
| C=CC(=O)N1CCN(c2nc(OC[C@@H]3C[C@@H](O)CN3C)nc3c2CCN(c2cccc4ccccc24)C3)CC1CC#N (stereo partly drawn) [Example 218, 2-(1-acryloyl-4-(2-(((2S,4R)-4-hydroxy-1-methylpyrrolidin-2-yl)methoxy)-7-(naphthalen-1-yl)-5,6,7,8-tetrahydropyrido[3,4-d]pyrimidin-4-yl)piperazin-2-yl)acetonitrile] | 0.1 to 1000 nM |
| C=CC(=O)N1CCN(c2nc(OCC3CN(C)CCN3C)nc3c2CCN(c2cc(O)cc4ccccc24)C3)CC1 (stereo not shown) [Example 219, 1-(4-(2-((1,4-dimethylpiperazin-2-yl)methoxy)-7-(3-hydroxynaphthalen-1-yl)-5,6,7,8-tetrahydropyrido[3,4-d]pyrimidin-4-yl)piperazin-1-yl)prop-2-en-1-one] | > 1000 nM |
| C=CC(=O)N1CCN(c2nc(OC[C@@H]3C[C@H](F)CN3C)nc3c2CCN(c2cccc4ccccc24)C3)CC1CC#N (stereo partly drawn) [Example 221, 2-(1-acryloyl-4-(2-(((2S,4S)-4-fluoro-1-methylpyrrolidin-2-yl)methoxy)-7-(naphthalen-1-yl)-5,6,7,8-tetrahydropyrido[3,4-d]pyrimidin-4-yl)piperazin-2-yl)acetonitrile] | 0.1 to 1000 nM |
| C=CC(=O)N1CCN(c2nc(OC[C@@H]3C[C@H](OC)CN3C)nc3c2CCN(c2cccc4ccccc24)C3)CC1CC#N (stereo partly drawn) [Example 222, 2-(1-acryloyl-4-(2-(((2S,4S)-4-methoxy-1-methylpyrrolidin-2-yl)methoxy)-7-(naphthalen-1-yl)-5,6,7,8-tetrahydropyrido[3,4-d]pyrimidin-4-yl)piperazin-2-yl)acetonitrile] | 0.1 to 1000 nM |
| C=CC(=O)N1CCN(c2nc(OC[C@@H]3CN(C)CCN3)nc3c2CCN(c2cccc4ccccc24)C3)CC1CC#N (stereo partly drawn) [Example 223, 2-(1-acryloyl-4-(2-(((S)-4-methylpiperazin-2-yl)methoxy)-7-(naphthalen-1-yl)-5,6,7,8-tetrahydropyrido[3,4-d]pyrimidin-4-yl)piperazin-2-yl)acetonitrile] | 0.1 to 1000 nM |
| C=CC(=O)N1CCN(c2nc(OC[C@H]3CN(C)CCN3)nc3c2CCN(c2cccc4ccccc24)C3)CC1CC#N (stereo partly drawn) [Example 224, 2-(1-acryloyl-4-(2-(((R)-4-methylpiperazin-2-yl)methoxy)-7-(naphthalen-1-yl)-5,6,7,8-tetrahydropyrido[3,4-d]pyrimidin-4-yl)piperazin-2-yl)acetonitrile] | 0.1 to 1000 nM |
| C=CC(=O)N1CCN(c2nc(OC[C@@H]3CCCN3C)nc3c2CCN(c2cc(F)ccc2OC(F)(F)F)C3)CC1CC#N (stereo partly shown) [Example 225] | 0.1 to 1000 nM |
| C=CC(=O)N1CCN(c2nc(OC[C@@H]3CCCN3C)nc3c2CCN(c2cccnc2C(F)(F)F)C3)CC1CC#N (stereo partly drawn) [Example 226, 2-(1-acryloyl-4-(2-(((S)-1-methylpyrrolidin-2-yl)methoxy)-7-(2-(trifluoromethyl)pyridin-3-yl)-5,6,7,8-tetrahydropyrido[3,4-d]pyrimidin-4-yl)piperazin-2-yl)acetonitrile] | 0.1 to 1000 nM |
| C=CC(=O)N1CCN(c2nc(OC[C@@H]3CCCN3C)nc3c2CCN(c2cccc(C)c2C)C3)CC1CC#N (stereo partly drawn) [Example 228, 2-(1-acryloyl-4-(7-(2,3-dimethylphenyl)-2-(((S)-1-methylpyrrolidin-2-yl)methoxy)-5,6,7,8-tetrahydropyrido[3,4-d]pyrimidin-4-yl)piperazin-2-yl)acetonitrile] | 0.1 to 1000 nM |
| C=CC(=O)N1CCN(c2nc(OCCCN3CCOCC3)nc3c2CCN(c2cc(O)cc(Cl)c2F)C3)CC1 [Example 232, 1-(4-(7-(3-chloro-2-fluoro-5-hydroxyphenyl)-2-(3-morpholinopropoxy)-5,6,7,8-tetrahydropyrido[3,4-d]pyrimidin-4-yl)piperazin-1-yl)prop-2-en-1-one] | > 1000 nM |
| C=CC(=O)N1CCN(c2nc(OC[C@@H]3CCCN3CC)nc3c2CCN(c2cccc4ccccc24)C3)CC1CC#N (stereo partly drawn) [Example 233, 2-(1-acryloyl-4-(2-(((S)-1-ethylpyrrolidin-2-yl)methoxy)-7-(naphthalen-1-yl)-5,6,7,8-tetrahydropyrido[3,4-d]pyrimidin-4-yl)piperazin-2-yl)acetonitrile] | 0.1 to 1000 nM |
| C=CC(=O)N1CCN(c2nc(OC[C@@H]3CCCN3C)nc3c2CCN(c2c(C)ccc4cn[nH]c24)C3)CC1CC#N (stereo partly shown) [Example 238] | 0.1 to 1000 nM |
| C=CC(=O)N1CCN(c2nc(OC[C@H]3CCCN3C)nc3c2CCN(c2c(C(F)(F)F)ccc4[nH]ncc24)C3)CC1CC#N (stereo partly drawn) [Example 243, 2-[4-[2-[[(2R)-1-methylpyrrolidin-2-yl]methoxy]-7-[5-(trifluoromethyl)-1H-indazol-4-yl]-6,8-dihydro-5H-pyrido[3,4-d]pyrimidin-4-yl]-1-prop-2-enoyl-piperazin-2-yl]acetonitrile] | 0.1 to 1000 nM |
| C=CC(=O)N1CCN(c2nc(OC[C@@H]3CCCN3C)nc3c2CCN(c2ccc(F)c4ccccc24)C3)CC1CC#N (stereo partly drawn) [Example 246, 2-[4-[7-(4-fluoro-1-naphthyl)-2-[[(2S)-1-methylpyrrolidin-2-yl]methoxy]-6,8-dihydro-5H-pyrido[3,4-d]pyrimidin-4-yl]-1-prop-2-enoyl-piperazin-2-yl] acetonitrile] | 0.1 to 1000 nM |

Next, values leading:

| IC50 | SMILES |
| --- | --- |
| 0.1 to 1000 nM | C=CC(=O)N1CCN(c2nc(OC[C@@H]3CCCN3C)nc3c2CCN(c2ccccc2OC(F)(F)F)C3)CC1CC#N (stereo partly drawn) [Example 211, 2-(1-acryloyl-4-(2-(((S)-1-methylpyrrolidin-2-yl)methoxy)-7-(2-(trifluoromethoxy)phenyl)-5,6,7,8-tetrahydropyrido[3,4-d]pyrimidin-4-yl)piperazin-2-yl)acetonitrile] |
| 0.1 to 1000 nM | C=CC(=O)N1CCN(c2nc(OC[C@@H]3CCCN3C)nc3c2CCN(c2cnccc2C(F)(F)F)C3)CC1CC#N (stereo partly drawn) [Example 212, 2-(1-acryloyl-4-(2-(((S)-1-methylpyrrolidin-2-yl)methoxy)-7-(4-(trifluoromethyl)pyridin-3-yl)-5,6,7,8-tetrahydropyrido[3,4-d]pyrimidin-4-yl)piperazin-2-yl)acetonitrile] |
| 0.1 to 1000 nM | C=CC(=O)N1CCN(c2nc(OC[C@@H]3CCCN3C)nc3c2CCN(c2ccccc2F)C3)CC1CC#N (stereo partly drawn) [Example 227, 2-(1-acryloyl-4-(7-(2-fluorophenyl)-2-(((S)-1-methylpyrrolidin-2-yl)methoxy)-5,6,7,8-tetrahydropyrido[3,4-d]pyrimidin-4-yl)piperazin-2-yl)acetonitrile] |
| 0.1 to 1000 nM | C=CC(=O)N1CCN(c2nc(OC[C@@H]3CCCN3C)nc3c2CCN(c2ccccc2Cl)C3)CC1CC#N (stereo partly shown) [Example 229] |
| 0.1 to 1000 nM | C=CC(=O)N1CCN(c2nc(OC[C@@H]3CCCN3C)nc3c2CCN(c2cccc(F)c2C(F)(F)F)C3)CC1CC#N (stereo partly shown) [Example 230] |
| 0.1 to 1000 nM | C=CC(=O)N1CCN(c2nc(OC[C@@H]3CCCN3C)nc3c2CCN(c2ccccc2C(F)(F)F)C3)C[C@@H]1CC#N [Example 237, 2-((S)-1-acryloyl-4-(2-(((S)-1-methylpyrrolidin-2-yl)methoxy)-7-(2-(trifluoromethyl)phenyl)-5,6,7,8-tetrahydropyrido [3,4-d]pyrimidin-4-yl)piperazin-2-yl)acetonitrile 2,2,2-trifluoroacetate] |
| > 1000 nM | C=CC(=O)N1CCN(c2nc(OC[C@@H]3CCCN3C)nc3c2CCN(c2ccncc2C(F)(F)F)C3)CC1CC#N (stereo partly drawn) [Example 239, 2-(1-acryloyl-4-(2-(((S)-1-methylpyrrolidin-2-yl)methoxy)-7-(3-(trifluoromethyl)pyridin-4-yl)-5,6,7,8-tetrahydropyrido[3,4-d]pyrimidin-4-yl)piperazin-2-yl)acetonitrile] |
| > 1000 nM | C=CC(=O)N1CCN(c2nc(OC[C@@H]3CCCN3C)nc3c2CCN(c2ccccc2CC(F)(F)F)C3)CC1CC#N (stereo partly drawn) [Example 240, 2-(1-acryloyl-4-(2-(((S)-1-methylpyrrolidin-2-yl)methoxy)-7-(2-(2,2,2-trifluoroethyl)phenyl)-5,6,7,8-tetrahydropyrido[3,4-d]pyrimidin-4-yl)piperazin-2-yl)acetonitrile] |
| > 1000 nM | C=CC(=O)N1CCN(c2nc(OC[C@@H]3CCCN3C)nc3c2CCN(c2ncccc2C(F)(F)F)C3)CC1CC#N (stereo partly shown) [Example 241] |
